{"source": "ChEMBL document CHEMBL3525961", "about": "“Identification of human UDP-glucuronosyltransferases involved in N-carbamoyl glucuronidation of lorcaserin” (Drug Metab Dispos, 2012)", "key": {"[1]": {"target": "T1, UDP-glucuronosyltransferase 1A9 (Homo sapiens, UniProt O60656)", "T1 sequence (O60656 whole entry)": "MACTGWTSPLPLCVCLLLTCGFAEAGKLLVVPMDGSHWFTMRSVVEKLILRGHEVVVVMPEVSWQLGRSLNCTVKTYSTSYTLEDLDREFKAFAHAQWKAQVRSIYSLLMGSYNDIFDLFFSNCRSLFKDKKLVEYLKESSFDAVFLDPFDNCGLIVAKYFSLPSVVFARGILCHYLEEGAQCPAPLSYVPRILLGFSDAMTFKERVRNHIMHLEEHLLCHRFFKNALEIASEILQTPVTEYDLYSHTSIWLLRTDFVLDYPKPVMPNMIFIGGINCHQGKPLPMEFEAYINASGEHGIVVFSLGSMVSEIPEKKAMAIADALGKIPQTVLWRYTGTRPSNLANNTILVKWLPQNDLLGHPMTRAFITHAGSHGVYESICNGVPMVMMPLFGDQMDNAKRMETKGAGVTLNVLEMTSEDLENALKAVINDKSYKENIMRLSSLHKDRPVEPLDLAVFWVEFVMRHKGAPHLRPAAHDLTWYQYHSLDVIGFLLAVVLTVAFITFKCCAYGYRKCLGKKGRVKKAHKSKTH", "assay": "Activity of human recombinant UGT1A9 expressed in insect cells assessed as intrinsic clearance for enzyme-mediated N-carbamoyl glucuronide formation", "type": "ADME"}, "[2]": {"target": "T2, UDP-glucuronosyltransferase 2B7 (Homo sapiens, UniProt P16662)", "T2 sequence (P16662 whole entry)": "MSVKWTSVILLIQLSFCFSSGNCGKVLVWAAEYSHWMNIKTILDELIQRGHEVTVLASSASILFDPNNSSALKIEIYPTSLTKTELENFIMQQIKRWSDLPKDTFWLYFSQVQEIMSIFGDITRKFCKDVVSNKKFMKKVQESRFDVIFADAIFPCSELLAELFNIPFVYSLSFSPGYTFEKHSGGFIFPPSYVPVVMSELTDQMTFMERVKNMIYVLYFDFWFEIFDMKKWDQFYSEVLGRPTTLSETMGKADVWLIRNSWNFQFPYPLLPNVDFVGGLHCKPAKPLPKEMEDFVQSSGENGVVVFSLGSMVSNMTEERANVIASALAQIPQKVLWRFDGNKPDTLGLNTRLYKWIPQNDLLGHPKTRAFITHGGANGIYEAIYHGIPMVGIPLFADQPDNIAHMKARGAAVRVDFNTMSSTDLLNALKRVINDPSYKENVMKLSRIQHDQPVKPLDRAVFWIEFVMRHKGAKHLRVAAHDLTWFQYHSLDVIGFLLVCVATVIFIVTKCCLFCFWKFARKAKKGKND", "assay": "Activity of human recombinant UGT2B7 expressed in insect cells assessed as intrinsic clearance for enzyme-mediated N-carbamoyl glucuronide formation", "type": "ADME"}, "[3]": {"target": "T3, UDP-glucuronosyltransferase 2B17 (Homo sapiens, UniProt O75795)", "T3 sequence (O75795 whole entry)": "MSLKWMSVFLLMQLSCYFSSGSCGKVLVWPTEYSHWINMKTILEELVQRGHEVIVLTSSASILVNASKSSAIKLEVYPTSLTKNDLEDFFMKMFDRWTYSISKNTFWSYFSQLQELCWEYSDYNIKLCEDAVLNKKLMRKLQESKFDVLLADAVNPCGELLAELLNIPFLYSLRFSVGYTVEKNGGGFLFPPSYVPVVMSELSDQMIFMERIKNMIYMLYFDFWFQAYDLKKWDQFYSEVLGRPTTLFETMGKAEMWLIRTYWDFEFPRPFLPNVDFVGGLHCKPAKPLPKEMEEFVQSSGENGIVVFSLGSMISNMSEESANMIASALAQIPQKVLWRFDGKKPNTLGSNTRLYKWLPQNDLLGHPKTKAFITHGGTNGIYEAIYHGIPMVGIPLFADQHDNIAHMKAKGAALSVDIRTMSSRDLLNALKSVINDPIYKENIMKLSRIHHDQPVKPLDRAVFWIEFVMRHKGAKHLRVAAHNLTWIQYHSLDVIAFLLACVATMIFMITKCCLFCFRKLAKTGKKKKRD", "assay": "Activity of human recombinant UGT2B17 expressed in insect cells assessed as intrinsic clearance for enzyme-mediated N-carbamoyl glucuronide formation per mg protein", "type": "ADME"}, "[4]": {"test_system": "Liver microsome", "assay": "Drug metabolism in human liver microsomes assessed as N-carbamoyl glucuronide formation at 100 uM in presence of 5 uM mefenamic acid", "type": "ADME"}, "[5]": {"target": "T1, UDP-glucuronosyltransferase 1A9", "assay": "Activity of human recombinant UGT1A9 expressed in insect cells assessed as intrinsic clearance for enzyme-mediated N-carbamoyl glucuronide formation per mg protein", "type": "ADME"}, "[6]": {"test_system": "Liver microsome", "assay": "Drug metabolism in human liver microsomes assessed as N-carbamoyl glucuronide formation", "type": "ADME"}, "[7]": {"target": "T4, UDP-glucuronosyltransferase 2B15 (Homo sapiens, UniProt P54855)", "T4 sequence (P54855 whole entry)": "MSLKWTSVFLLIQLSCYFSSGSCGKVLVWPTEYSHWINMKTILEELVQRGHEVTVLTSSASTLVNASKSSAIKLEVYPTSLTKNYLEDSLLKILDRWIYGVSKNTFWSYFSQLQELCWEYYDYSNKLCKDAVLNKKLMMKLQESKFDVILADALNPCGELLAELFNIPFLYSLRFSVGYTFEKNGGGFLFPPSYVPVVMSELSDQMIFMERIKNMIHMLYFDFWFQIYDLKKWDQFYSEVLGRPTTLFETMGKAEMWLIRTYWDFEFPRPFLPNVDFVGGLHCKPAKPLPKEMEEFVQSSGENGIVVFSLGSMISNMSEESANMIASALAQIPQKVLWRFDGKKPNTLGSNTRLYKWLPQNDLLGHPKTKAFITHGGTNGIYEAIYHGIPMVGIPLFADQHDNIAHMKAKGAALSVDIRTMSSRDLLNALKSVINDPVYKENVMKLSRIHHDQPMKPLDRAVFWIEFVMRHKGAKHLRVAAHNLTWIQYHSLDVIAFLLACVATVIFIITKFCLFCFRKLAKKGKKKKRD", "assay": "Activity of human recombinant UGT2B15 expressed in insect cells assessed as intrinsic clearance for enzyme-mediated N-carbamoyl glucuronide formation", "type": "ADME"}, "[8]": {"assay": "Drug metabolism in smoking human lung assessed as N-carbamoyl glucuronide formation per mg protein at 100 uM", "type": "ADME, tissue-based"}, "[9]": {"test_system": "Liver microsome", "assay": "Drug metabolism in human liver microsomes assessed as 25 uM bisphenol-mediated inhibition of N-carbamoyl glucuronide formation at 100 uM", "type": "ADME"}, "[10]": {"test_system": "Liver", "assay": "Drug metabolism in human liver assessed as N-carbamoyl glucuronide formation per mg protein at 100 uM", "type": "ADME, tissue-based"}, "[11]": {"test_system": "Liver microsome", "assay": "Drug metabolism in human liver microsomes assessed as 100 uM eugenol-mediated inhibition of N-carbamoyl glucuronide formation at 1 uM", "type": "ADME"}, "[12]": {"test_system": "Liver microsome", "assay": "Drug metabolism in human liver microsomes assessed as N-carbamoyl glucuronide formation per mg protein", "type": "ADME"}, "[13]": {"assay": "Drug metabolism in human intestine assessed as N-carbamoyl glucuronide formation per mg protein at 100 uM", "type": "ADME, tissue-based"}, "[14]": {"target": "T5, UDP-glucuronosyltransferase 1A6 (Homo sapiens, UniProt P19224)", "T5 sequence (P19224 whole entry)": "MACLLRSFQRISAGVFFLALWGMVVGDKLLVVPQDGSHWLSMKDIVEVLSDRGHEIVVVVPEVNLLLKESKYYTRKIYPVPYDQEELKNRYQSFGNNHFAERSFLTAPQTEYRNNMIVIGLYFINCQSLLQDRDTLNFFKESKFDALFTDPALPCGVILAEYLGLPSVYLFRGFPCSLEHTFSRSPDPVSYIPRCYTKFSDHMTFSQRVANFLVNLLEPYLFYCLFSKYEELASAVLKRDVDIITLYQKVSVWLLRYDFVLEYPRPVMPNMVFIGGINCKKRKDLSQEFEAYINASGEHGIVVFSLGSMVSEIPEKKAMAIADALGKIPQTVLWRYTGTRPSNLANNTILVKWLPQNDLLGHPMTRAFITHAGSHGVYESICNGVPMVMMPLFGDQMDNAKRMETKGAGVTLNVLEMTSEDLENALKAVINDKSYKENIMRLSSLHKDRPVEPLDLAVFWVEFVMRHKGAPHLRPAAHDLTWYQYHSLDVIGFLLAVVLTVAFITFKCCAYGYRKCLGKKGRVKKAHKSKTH", "assay": "Activity of human recombinant UGT1A6 expressed in insect cells assessed as intrinsic clearance for enzyme-mediated N-carbamoyl glucuronide formation", "type": "ADME"}, "[15]": {"test_system": "Liver microsome", "assay": "Drug metabolism in human liver microsomes assessed as 100 uM eugenol-mediated inhibition of N-carbamoyl glucuronide formation at 100 uM", "type": "ADME"}, "[16]": {"test_system": "Liver microsome", "assay": "Drug metabolism in human liver microsomes assessed as intrinsic clearance for N-carbamoyl glucuronide formation per mg protein", "type": "ADME"}, "[17]": {"assay": "Drug metabolism in non-smoking human lung assessed as N-carbamoyl glucuronide formation per mg protein at 100 uM", "type": "ADME, tissue-based"}, "[18]": {"target": "T2, UDP-glucuronosyltransferase 2B7", "assay": "Activity of human recombinant UGT2B7 expressed in insect cells assessed as intrinsic clearance for enzyme-mediated N-carbamoyl glucuronide formation per mg protein", "type": "ADME"}, "[19]": {"test_system": "Liver microsome", "assay": "Drug metabolism in human liver microsomes assessed as N-carbamoyl glucuronide formation at 100 uM in presence of 20 uM eugenol", "type": "ADME"}, "[20]": {"assay": "Drug metabolism in human kidney assessed as N-carbamoyl glucuronide formation per mg protein at 100 uM", "type": "ADME, tissue-based"}, "[21]": {"target": "T4, UDP-glucuronosyltransferase 2B15", "assay": "Activity of human recombinant UGT2B15 expressed in insect cells assessed as intrinsic clearance for enzyme-mediated N-carbamoyl glucuronide formation per mg protein", "type": "ADME"}, "[22]": {"target": "T3, UDP-glucuronosyltransferase 2B17", "assay": "Activity of human recombinant UGT2B17 expressed in insect cells assessed as intrinsic clearance for enzyme-mediated N-carbamoyl glucuronide formation", "type": "ADME"}, "[23]": {"test_system": "Liver microsome", "assay": "Drug metabolism in human liver microsomes assessed as N-carbamoyl glucuronide formation at 100 uM in presence of 5 uM bisphenol", "type": "ADME"}}, "data": [{"smiles": "C[C@H]1CNCCc2ccc(Cl)cc21.Cl.O", "values": [{"measurement": "Drug metabolism", "setting": "[1]", "result": "metabolite_detected"}, {"measurement": "Drug metabolism", "setting": "[2]", "result": "metabolite_detected"}, {"measurement": "CL", "setting": "[3]", "result": 0.611, "unit": "µL/min/g"}, {"measurement": "Drug metabolism", "setting": "[4]", "result": "metabolite_detected"}, {"measurement": "CL", "setting": "[5]", "result": 0.199, "unit": "µL/min/g"}, {"measurement": "Km", "setting": "[6]", "result": 128, "unit": "µM"}, {"measurement": "Drug metabolism", "setting": "[7]", "result": "metabolite_detected"}, {"measurement": "Drug metabolism", "setting": "[8]", "result": 1.116, "unit": "pmol/min"}, {"measurement": "inhibition (INH)", "setting": "[9]", "result": 30, "unit": "%"}, {"measurement": "Drug metabolism", "setting": "[10]", "result": 1028, "unit": "pmol/min"}, {"measurement": "inhibition (INH)", "setting": "[11]", "result": 18, "unit": "%"}, {"measurement": "Vmax", "setting": "[12]", "result": 2379.2, "unit": "pmol/min"}, {"measurement": "Drug metabolism", "setting": "[13]", "result": 133.1, "unit": "pmol/min"}, {"measurement": "Drug metabolism", "setting": "[14]", "result": "metabolite_detected"}, {"measurement": "inhibition (INH)", "setting": "[15]", "result": 11, "unit": "%"}, {"measurement": "CLH", "setting": "[16]", "result": 18.57, "unit": "µL/min/g"}, {"measurement": "Drug metabolism", "setting": "[17]", "result": 0.493, "unit": "pmol/min"}, {"measurement": "CL", "setting": "[18]", "result": 1.987, "unit": "µL/min/g"}, {"measurement": "Drug metabolism", "setting": "[19]", "result": "metabolite_detected"}, {"measurement": "Drug metabolism", "setting": "[20]", "result": 185.9, "unit": "pmol/min"}, {"measurement": "CL", "setting": "[21]", "result": 4.601, "unit": "µL/min/g"}, {"measurement": "Drug metabolism", "setting": "[22]", "result": "metabolite_detected"}, {"measurement": "Drug metabolism", "setting": "[23]", "result": "metabolite_detected"}]}]}
